For one assay, the target named is T1, IDH2 R140Q (Homo sapiens, UniProt P48735, R140Q).
T1 sequence (P48735 40-452 R140Q): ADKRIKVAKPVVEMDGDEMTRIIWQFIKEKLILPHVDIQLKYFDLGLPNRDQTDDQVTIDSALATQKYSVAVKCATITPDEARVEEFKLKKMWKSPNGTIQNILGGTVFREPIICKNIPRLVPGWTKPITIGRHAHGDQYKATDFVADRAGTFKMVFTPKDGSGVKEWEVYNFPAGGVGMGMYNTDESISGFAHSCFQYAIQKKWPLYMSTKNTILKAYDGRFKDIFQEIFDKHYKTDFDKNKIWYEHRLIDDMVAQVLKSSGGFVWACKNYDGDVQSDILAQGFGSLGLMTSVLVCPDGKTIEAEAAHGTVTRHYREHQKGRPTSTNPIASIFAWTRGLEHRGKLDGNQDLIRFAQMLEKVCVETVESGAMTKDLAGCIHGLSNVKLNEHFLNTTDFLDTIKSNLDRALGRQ
The experiment in a line: IDH2 R140Q enzymatic assay (cofactor depletion, similar format). It is filed as biochemical. The following applies: read-out: Enz R140Q. As to the method:
[The source words this procedure for another variant and says it was used here with some conditions changed.] Compounds are assayed for IDH2 R172K inhibitory activity through a cofactor depletion assay. […] The reaction is terminated by the addition of a second enzyme, diaphorase, and a corresponding substrate, resazurin. Diaphorase reduces resazurin to the highly fluorescent resorufin with the concomitant oxidation of NADPH to NADP, both halting the IDH2 reaction by depleting the available cofactor pool and facilitating quantitation of the amount of cofactor remaining after a specific time period through quantitative production of an easily detected fluorophore.
The test compound is then incubated for one hour at room temperature with the enzyme; before starting the IDH2 reaction with the addition of 10 μl of substrate mix containing 50 μM NADPH and 6.3 mM α-KG in the buffer described above. After a further one hour of incubation at room temperature, the reaction is halted and the remaining NADPH measured through conversion of resazurin to resorufin by the addition of 25 μl Stop Mix (36 μg/ml diaphorase enzyme and 60 μM resazurin; in buffer).

Assay [1] relates to U87MG pLVX-IDH2 R140Q-neo cells. Kind of assay: U87MG pLVX-IDH2 R140Q-neo cell based assay, 2-HG in media by LC-MS at 48 hours. As to the method:
U87MG pLVX-IDH2 R140Q-neo cells are grown in T125 flasks in DMEM containing 10% FBS, 1× penicillin/streptomycin and 500 μg/mL G418. They are harvested by trypsin and seeded into 96 well white bottom plates at a density of 5000 cell/well in 100 μl/well in DMEM with 10% FBS. No cells are plated in columns 1 and 12. Cells are incubated overnight at 37° C. in 5% CO2. The next day compounds are made up at 2× concentration and 100 ul are added to each cell well. The final concentration of DMSO is 0.2% and the DMSO control wells are plated in row G. The plates are then placed in the incubator for 48 hours. At 48 hours, 100 ul of media is removed from each well and analyzed by LC-MS for 2-HG concentrations. The cell plate is placed back in the incubator for another 24 hours. At 72 hours post compound addition, 10 mL/plate of Promega Cell Titer Glo reagent is thawed and mixed. The cell plate is removed from the incubator and allowed to equilibrate to room temperature. Then 100 ul of reagent is added to each well of media. The cell plate is then placed on an orbital shaker for 10 minutes and then allowed to sit at room temperature for 20 minutes. The plate is then read for luminescence with an integration time of 500 ms to determine compound effects on growth inhibition.

This is an account of results in patent publication US9512107B2, “Therapeutically active compositions and their methods of use” (Agios Pharmaceuticals, Inc., priority 2012, dated 2016).

The structures appear in SMILES notation. Where two headings read alike, the source gives them in different places.

Take `CC(C)Nc1nc(Nc2ccncc2C(F)(F)F)nc(-c2ccccc2)n1` [Compound 314, N^2-isopropyl-6-phenyl-N^4-(3-(trifluoromethyl)pyridin-4-yl)-1,3,5-triazine-2,4-diamine]: at IDH2 R140Q, the IC50 lay in the range of 1000 to 10000 nM. In assay [1], the “Cell R140Q” value was “No Fit”.

Regarding `CC(C)Nc1nc(Nc2ccccc2)nc(-c2cccc(N)n2)n1` [Compound 290, 6-(6-aminopyridin-2-yl)-N^2-isopropyl-N^4-phenyl-1,3,5-triazine-2,4-diamine], the IC50 is 100 to 1000 nM at IDH2 R140Q and < 100 nM in assay [1] (Homo sapiens, U-87 MG).

As for `CC(C)(O)CNc1nc(Nc2cncc(C(F)(F)F)c2)nc(-c2ccccc2F)n1` [Compound 392, 1-(4-(2-fluorophenyl)-6-(5-(trifluoromethyl)pyridin-3-ylamino)-1,3,5-triazin-2-ylamino)-2-methylpropan-2-ol], the IC50 at IDH2 R140Q is 100 to 1000 nM; in assay [1] (Homo sapiens, U-87 MG) it was < 100 nM.

For the compound `CC(C)(O)CNc1nc(Nc2cncc(C(F)(F)F)c2)nc(-c2cccc(Cl)n2)n1` [Compound 367, 1-(4-(6-chloropyridin-2-yl)-6-(5-(trifluoromethyl)pyridin-3-ylamino)-1,3,5-triazin-2-ylamino)-2-methylpropan-2-ol], the IC50 on IDH2 R140Q is 100 to 1000 nM; in assay [1] (Homo sapiens, U-87 MG), < 100 nM.

Take `CC(C)Nc1nc(Nc2cccc(S(C)(=O)=O)c2)nc(-c2cccc(C3CC3)n2)n1` [Compound 397, 6-(6-cyclopropylpyridin-2-yl)-N^2-isopropyl-N^4-(3-(methylsulfonyl)phenyl)-1,3,5-triazine-2,4-diamine]: the IC50 at IDH2 R140Q fell in the range of 100 to 1000 nM; in assay [1] (Homo sapiens, U-87 MG) it was 100 to 1000 nM.

With `CC(C)Nc1nc(Nc2cncc(C#N)c2)nc(-c2cccc(Cl)n2)n1` [Compound 382, 5-(4-(6-chloropyridin-2-yl)-6-(isopropylamino)-1,3,5-triazin-2-ylamino)nicotinonitrile], the IC50 on IDH2 R140Q was 100 to 1000 nM; in assay [1] (Homo sapiens, U-87 MG), < 100 nM.

For the compound `CC(C)Nc1nc(Nc2cccc(S(C)(=O)=O)c2)nc(-c2cccc(C(F)F)n2)n1` [Compound 366, 6-(6-(difluoromethyl)pyridin-2-yl)-N^2-isopropyl-N^4-(3-(methylsulfonyl)phenyl)-1,3,5-triazine-2,4-diamine], the IC50 at IDH2 R140Q is 100 to 1000 nM; in assay [1] (Homo sapiens, U-87 MG), < 100 nM.

For `O=C1C=C(Nc2nc(Nc3ccccc3)nc(-c3ccccc3)n2)CCC1` [Compound 362, 3-(4-phenyl-6-(phenylamino)-1,3,5-triazin-2-ylamino)cyclohex-2-enone], the IC50 on IDH2 R140Q lay within 100 to 1000 nM; in assay [1] (Homo sapiens, U-87 MG) it was 100 to 1000 nM.

As to `Fc1cc(Nc2nc(NCC3CCCO3)nc(-c3cccc(C(F)(F)F)n3)n2)ccn1` (stereo not drawn) [Compound 402, N^2-(2-fluoropyridin-4-yl)-N^4-((tetrahydrofuran-2-yl)methyl)-6-(6-(trifluoromethyl)pyridin-2-yl)-1,3,5-triazine-2,4-diamine], the IC50 on IDH2 R140Q is 100 to 1000 nM; in assay [1] (Homo sapiens, U-87 MG), < 100 nM.

`N#Cc1cc(Nc2nc(NCC3CCCO3)nc(-c3cccc(C(F)(F)F)n3)n2)ccn1` (stereo not drawn) [Compound 403, 4-(4-((tetrahydrofuran-2-yl)methylamino)-6-(6-(trifluoromethyl)pyridin-2-yl)-1,3,5-triazin-2-ylamino)picolinonitrile]: the IC50 on IDH2 R140Q is 100 to 1000 nM; in assay [1] (Homo sapiens, U-87 MG), < 100 nM.

In the case of `CNc1cccc(-c2nc(Nc3cccc(S(C)(=O)=O)c3)nc(NC(C)C)n2)n1` [Compound 364, N^2-isopropyl-6-(6-(methylamino)pyridin-2-yl)-N^4-(3-(methylsulfonyl)phenyl)-1,3,5-triazine-2,4-diamine], the IC50 on IDH2 R140Q lay within 1000 to 10000 nM; in assay [1] (Homo sapiens, U-87 MG), 100 to 1000 nM.

In the case of `CC(C)Nc1nc(Nc2cccc(S(C)(=O)=O)c2)nc(-c2cccc(Cl)n2)n1` [Compound 326, 6-(6-chloropyridin-2-yl)-N^2-isopropyl-N^4-(3-(methylsulfonyl)phenyl)-1,3,5-triazine-2,4-diamine], the IC50 on IDH2 R140Q was 100 to 1000 nM; in assay [1] (Homo sapiens, U-87 MG), < 100 nM.

Consider `CC(C)Nc1nc(Nc2ccnc(C3CC3)c2)nc(-c2ccccc2)n1` [Compound 315, N^2-(2-cyclopropylpyridin-4-yl)-N^4-isopropyl-6-phenyl-1,3,5-triazine-2,4-diamine], for which the IC50 was < 100 nM at IDH2 R140Q and < 100 nM in assay [1] (Homo sapiens, U-87 MG).

As for `Fc1ccc(Nc2nc(NC3COC3)nc(-c3cccc(Cl)n3)n2)cn1` [Compound 410, 6-(6-chloropyridin-2-yl)-N^2-(6-fluoropyridin-3-yl)-N^4-(oxetan-3-yl)-1,3,5-triazine-2,4-diamine], the IC50 at IDH2 R140Q was > 10000 nM; in assay [1] (Homo sapiens, U-87 MG) it was 100 to 1000 nM.

For the compound `CNc1ccc(Nc2nc(NC(C)C)nc(-c3ccccc3)n2)cn1` [Compound 303, N^2-isopropyl-N^4-(6-(methylamino)pyridin-3-yl)-6-phenyl-1,3,5-triazine-2,4-diamine], the IC50 on IDH2 R140Q lay in the range of 1000 to 10000 nM. Also, in assay [1], the “Cell R140Q” value is “No Fit”.

For the compound `CC(C)Nc1nc(Nc2ccnc(F)c2)nc(-c2ccccc2F)n1` [Compound 371, 6-(2-fluorophenyl)-N^2-(2-fluoropyridin-4-yl)-N^4-isopropyl-1,3,5-triazine-2,4-diamine], the IC50 on IDH2 R140Q is < 100 nM; in assay [1] (Homo sapiens, U-87 MG), < 100 nM.

As for `Cc1ccc(Nc2nc(NC(C)C)nc(-c3ccccc3)n2)cn1` [Compound 281, N^2-isopropyl-N^4-(6-methylpyridin-3-yl)-6-phenyl-1,3,5-triazine-2,4-diamine], the IC50 was < 100 nM on IDH2 R140Q and 100 to 1000 nM in assay [1] (Homo sapiens, U-87 MG).

Turning to `CC(C)Nc1nc(Nc2ccc(Cl)nc2)nc(-c2ccccc2)n1` [Compound 289, N^2-(6-chloropyridin-3-yl)-N^4-isopropyl-6-phenyl-1,3,5-triazine-2,4-diamine], the IC50 was < 100 nM on IDH2 R140Q and 100 to 1000 nM in assay [1] (Homo sapiens, U-87 MG).

Take `COC(=O)c1cc(Nc2nc(NC(C)C)nc(-c3ccccc3)n2)ccn1` [Compound 346]: the IC50 on IDH2 R140Q is < 100 nM; in assay [1] (Homo sapiens, U-87 MG), 100 to 1000 nM.

Regarding `CC(C)Nc1nc(Nc2cc(F)cc(F)c2)nc(-c2cccc(N)n2)n1` [Compound 398, 6-(6-aminopyridin-2-yl)-N^2-(3,5-difluorophenyl)-N^4-isopropyl-1,3,5-triazine-2,4-diamine], the IC50 at IDH2 R140Q is < 100 nM; in assay [1] (Homo sapiens, U-87 MG) it was < 100 nM.

With `COCC(C)Nc1nc(Nc2ccncc2)nc(-c2ccccc2)n1` (stereo not drawn) [Compound 272, N^2-(1-methoxypropan-2-yl)-6-phenyl-N^4-(pyridin-4-yl)-1,3,5-triazine-2,4-diamine], the IC50 is 100 to 1000 nM at IDH2 R140Q and 100 to 1000 nM in assay [1] (Homo sapiens, U-87 MG).

For the compound `COC(=O)c1cc(Nc2nc(NC(C)C)nc(-c3ccccc3)n2)ccn1` [Compound 450, methyl 4-((4-(isopropylamino)-6-phenyl-1,3,5-triazin-2-yl)amino)picolinate], the IC50 at IDH2 R140Q was 100 to 1000 nM; in assay [1] it was < 100 nM.

For the compound `CC(C)Nc1nc(Nc2ccncc2)nc(-c2cccc(O)c2)n1` [Compound 328, 3-[4-Isopropylamino-6-(pyridin-4-ylamino)-[1,3,5]triazin-2-yl]-phenol], the IC50 at IDH2 R140Q is < 100 nM; in assay [1] (Homo sapiens, U-87 MG), < 100 nM.

As for `CC(C)Nc1nc(Nc2cncc(C#N)c2)nc(-c2ccccc2F)n1` [Compound 321, 5-(4-(2-fluorophenyl)-6-(isopropylamino)-1,3,5-triazin-2-ylamino)nicotinonitrile], the IC50 at IDH2 R140Q was < 100 nM; in assay [1] (Homo sapiens, U-87 MG), < 100 nM.
